Read-outs that look alike come from different tables or passages of the source. Where a SMILES comes first, the peptide text is derived from it. Bridges are numbered along the chain shown (N, C = ends). Where no end group is shown, it is not given here. [ ]: non-standard residue; d: D form. PEG = not defined here; Aib = CC(C)(N)C(=O)O
Assays:
GLP-1 receptor = biological target: T1, GLP-1 receptor (Homo sapiens, UniProt P43220); experiment: Functional assay-cAMP synthesis, luciferase reporter in HEK293 cells co-transfected with GLP-1 receptor; assay type: cell-based; settings: for GLP 1 Receptor Relative Potency (%): Table 11, relative to GLP-1-VKGG30 (SEQ ID NO: 527) = 100
T1 construct: expressed in transfected cells; host or cells: HEK293
T1 sequence (P43220 24-463, species assumed): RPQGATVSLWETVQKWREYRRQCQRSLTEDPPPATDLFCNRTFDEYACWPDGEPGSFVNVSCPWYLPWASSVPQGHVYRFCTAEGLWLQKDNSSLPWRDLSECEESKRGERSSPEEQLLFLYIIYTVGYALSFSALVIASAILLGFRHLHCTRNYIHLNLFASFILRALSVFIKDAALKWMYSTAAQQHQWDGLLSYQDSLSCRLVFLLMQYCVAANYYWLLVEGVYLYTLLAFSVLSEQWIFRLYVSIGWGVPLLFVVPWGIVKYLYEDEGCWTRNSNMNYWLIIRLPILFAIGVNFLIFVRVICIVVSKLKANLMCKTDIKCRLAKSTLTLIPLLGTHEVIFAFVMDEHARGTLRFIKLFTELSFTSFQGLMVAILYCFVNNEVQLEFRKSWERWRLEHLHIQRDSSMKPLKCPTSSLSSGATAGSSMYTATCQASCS

glucagon receptor = biological target: T2, glucagon receptor (Homo sapiens, UniProt P47871); experiment: Functional assay-cAMP synthesis, luciferase reporter in HEK293 cells co-transfected with glucagon receptor; assay type: cell-based; settings: for Parent w/PEG % Potency Relative to Native GR / Parent w/o PEG % Potency Relative to Native GR: Table 12; for Parent w/PEG % Potency Relative to Native GR: pegylated peptide; for Parent w/o PEG % Potency Relative to Native GR: peptide without PEG; for Glucagon Receptor Relative Potency (%): Table 11, relative to glucagon (SEQ ID NO: 1) = 100
T2 construct: expressed in transfected cells; host or cells: HEK293
T2 sequence (P47871 26-477): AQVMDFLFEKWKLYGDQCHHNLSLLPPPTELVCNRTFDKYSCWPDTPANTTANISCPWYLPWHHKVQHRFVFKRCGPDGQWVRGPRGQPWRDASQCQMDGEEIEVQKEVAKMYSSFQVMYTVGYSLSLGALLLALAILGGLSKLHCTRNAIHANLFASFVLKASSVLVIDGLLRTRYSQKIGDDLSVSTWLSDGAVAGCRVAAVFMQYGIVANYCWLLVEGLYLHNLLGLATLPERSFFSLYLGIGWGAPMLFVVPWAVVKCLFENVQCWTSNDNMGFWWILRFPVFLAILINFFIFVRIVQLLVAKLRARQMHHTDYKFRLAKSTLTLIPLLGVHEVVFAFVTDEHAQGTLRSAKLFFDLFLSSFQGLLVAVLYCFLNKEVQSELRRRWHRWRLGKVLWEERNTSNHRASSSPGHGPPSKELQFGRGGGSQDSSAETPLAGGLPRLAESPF

Row | Molecule | EC50 (GLP-1 receptor) | Parent w/PEG % Potency Relative to Native GR (glucagon receptor) | Parent w/o PEG % Potency Relative to Native GR (glucagon receptor) | Parent w/PEG % Potency Relative to Native GLP-1R (GLP-1 receptor; Table 12, pegylated peptide) | GLP 1 Receptor Relative Potency (%) (GLP-1 receptor) | EC50 (glucagon receptor) | Glucagon Receptor Relative Potency (%) (glucagon receptor) | also measured
1 | CC[C@H](C)[C@H](NC(=O)[C@H](Cc1ccccc1)NC(=O)[C@H](CCC(=O)O)NC(=O)[C@H](CCCCN)NC(=O)[C@H](C)NC(=O)[C@H](C)NC(=O)[C@H](CCC(N)=O)NC(=O)[C@H](CCC(=O)O)NC(=O)[C@H](CC(=O)O)NC(=O)[C@H](CC(C)C)NC(=O)[C@H](Cc1ccc(O)cc1)NC(=O)[C@H](CCCCN)NC(=O)[C@H](CO)NC(=O)[C@H](Cc1ccc(O)cc1)NC(=O)[C@H](CC(=O)O)NC(=O)[C@H](CO)NC(=O)[C@@H](NC(=O)[C@H](Cc1ccccc1)NC(=O)[C@@H](NC(=O)CNC(=O)[C@H](CCC(N)=O)NC(=O)[C@H](CO)NC(=O)[C@@H](N)Cc1c[nH]cn1)[C@@H](C)O)[C@@H](C)O)C(=O)N[C@H]1CCC(=O)NCCCC[C@@H](C(=O)NCC(N)=O)NC(=O)[C@H](C(C)C)NC(=O)[C@H](CC(C)C)NC(=O)[C@H](Cc2c[nH]c3ccccc23)NC1=O [E16 GLP(17-29)-NH2 E24, K28 Lactam] (H-HSQGTFTSDYSKYLDEQAAKEFIEWLVKG-NH2; lactam 24-28; N-terminus assumed) | 0.007 nM | – | – | – | – | – | – | EC50 (glucagon receptor; Glucagon Receptor EC50(nM), Table 10, GLP-1 17-26 glucagon analogs): 0.16 nM
2 | X1SQGT FTSDY SKYLD EQAAK EFIC*W LMNTa | – | 19.1% | 160.7% | – | – | – | – | Parent w/PEG % Potency Relative to Native GLP-1R (GLP-1 receptor): 12.5%; Parent w/o PEG % Potency Relative to Native GLP-1R (GLP-1 receptor): 82.5%
3 | HX2QGT FTSDY SKYLD ERAAK DFVC*W LMNTa (H[Aib]QGTFTSDYSKYLDERAAKDFVC(PEG)WLMNT-NH2; reading uncertain) [E16, K20AIB2, A18 Cys24 (SEQ ID NO: 492), X2=AIB; C* is Cys attached to PEG in the tested form] | – | 1.1% | – | 73.5% | – | – | – | –
4 | CSCC[C@H](NC(=O)[C@H](CC(C)C)NC(=O)[C@H](Cc1c[nH]c2ccccc12)NC(=O)[C@H](CCC(N)=O)NC(=O)[C@@H](NC(=O)[C@H](Cc1ccccc1)NC(=O)[C@H](CC(=O)O)NC(=O)[C@H](CCC(N)=O)NC(=O)[C@H](C)NC(=O)[C@H](CCCNC(=N)N)NC(=O)[C@H](CCCNC(=N)N)NC(=O)[C@H](CO)NC(=O)[C@H](CC(=O)O)NC(=O)[C@H](CC(C)C)NC(=O)[C@H](Cc1ccc(O)cc1)NC(=O)[C@H](CCCCN)NC(=O)[C@H](CO)NC(=O)[C@H](Cc1ccc(O)cc1)NC(=O)[C@H](CC(=O)O)NC(=O)[C@H](CO)NC(=O)[C@@H](NC(=O)[C@H](Cc1ccccc1)NC(=O)[C@@H](NC(=O)CNC(=O)[C@H](CCC(N)=O)NC(=O)[C@H](CO)NC(=O)[C@@H](N)Cc1c[nH]cn1)[C@@H](C)O)[C@@H](C)O)C(C)C)C(=O)N[C@@H](CCCCN)C(=O)NCC(=O)NCC(=O)N1CCC[C@H]1C(=O)N[C@@H](CO)C(=O)N[C@@H](CO)C(=O)NCC(=O)N[C@@H](C)C(=O)N1CCC[C@H]1C(=O)N1CCC[C@H]1C(=O)N1CCC[C@H]1C(=O)N[C@@H](CO)C(N)=O [-MKGG^30 PSSGAPPPS (SEQ ID NO: 523)] | 0.8 nM | – | – | – | 3% | 0.61 nM | 14% | –
5 | HX2QGT FTSDYSKYLDEQAAKEFIAWLMNC*a (H[Aib]QGTFTSDYSKYLDEQAAKEFIAWLMNC-NH2; also: optional PEG on Cys29) [Chimera AIB2, Cys29 (SEQ ID NO: 487), X2=AIB; C* is Cys or Cys attached to PEG] | – | 5.6% | 20.1% | 54.3% | – | – | – | Parent w/o PEG % Potency Relative to Native GLP-1R (GLP-1 receptor; Table 12, peptide without PEG): 124.6%
6 | HSQGTFTSDYSKYLDSRRAQDFVQWLVKGGPSSGAPPPS-NH2 [-VKGG^30 PSSGAPPPS (SEQ ID NO: 524)] | 0.21 nM | – | – | – | 12% | 1.16 nM | 7% | –

Reference: patent publication US8900593B2 (Indiana University Research and Technology Corporation, priority 2007, dated 2014)
